± gives the expanded uncertainty stated by the source.
Experiment: xn = mol fraction of the nth substance listed
Conditions: 101 kPa, Liquid; for speed of sound: Sing-around technique in a fixed-path interferometer; for mass density: Vibrating tube method

CCCCCC[n+]1ccccc1.[Br-] [1-hexylpyridinium bromide] + O
Conditions | mass density, 308.15 K [kg/m3] | mass density, 318.15 K [kg/m3] | speed of sound, 308.15 K [m/s] | speed of sound, 318.15 K [m/s]
x2 = 0.0609 | 1235 ± 2.3 | 1228.39 ± 2.3 | 1589.8 ± 2.6 | 1556.2 ± 2.6
x2 = 0.1184 | 1234.11 ± 2.2 | 1227.43 ± 2.2 | 1587.3 ± 2.5 | 1555.1 ± 2.5
x2 = 0.2091 | 1232.19 ± 2.2 | 1225.43 ± 2.2 | 1583.4 ± 2.4 | 1553.2 ± 2.4
x2 = 0.2544 | 1230.93 ± 2.1 | 1224.15 ± 2.1 | 1580.7 ± 2.3 | 1552.2 ± 2.3
x2 = 0.3097 | 1229.05 ± 2.1 | 1222.25 ± 2.1 | 1578.7 ± 2.3 | 1551.4 ± 2.3
x2 = 0.414 | 1224.2 ± 2.1 | 1217.39 ± 2.1 | 1574.6 ± 2.2 | 1550 ± 2.1
x2 = 0.4533 | 1221.81 ± 2.1 | 1215.01 ± 2.1 | 1572.9 ± 2.1 | 1549.3 ± 2.1
x2 = 0.5028 | 1218.26 ± 2 | 1211.46 ± 2 | 1571.8 ± 2.1 | 1548.7 ± 2.1
x2 = 0.5928 | 1209.73 ± 2 | 1202.97 ± 2 | 1570.1 ± 2 | 1547.5 ± 2
x2 = 0.6486 | 1202.64 ± 2 | 1195.91 ± 2 | 1565.9 ± 1.9 | 1547.1 ± 1.9
x2 = 0.7138 | 1191.79 ± 2 | 1185.1 ± 2 | 1561.6 ± 1.9 | 1546.5 ± 1.9
x2 = 0.7554 | 1182.79 ± 2 | 1176.19 ± 2 | 1557.1 ± 1.9 | 1545.7 ± 1.9
x2 = 0.7995 | 1170.69 ± 2 | 1164.19 ± 2 | 1551.1 ± 1.8 | 1545 ± 1.8
x2 = 0.8534 | 1150.45 ± 2 | 1144.16 ± 2 | 1543.3 ± 1.8 | 1543.3 ± 1.8
x2 = 0.9011 | 1124.03 ± 2 | 1118.08 ± 2 | 1535.9 ± 1.8 | 1541.3 ± 1.8
x2 = 0.9511 | 1079.2 ± 2 | 1073.95 ± 2 | 1528.1 ± 1.8 | 1539.1 ± 1.8
